The subject of this assay is E. coli and/or S. aureus. Put plainly: Antimicrobial susceptibility testing (MIC and MBC), summary statements. The format is cell-based. Particulars: AST in vitro against E. coli ATCC 25922 and S. aureus ATCC 29213. As for the experimental part:
A total of 21 of the 1137 putative AMPs (Table S2) were synthesized (Genscript Biotech, Piscataway, NJ, USA) and tested for their antimicrobial activity against Escherichia coli ATCC 25922 and Staphylococcus aureus ATCC 29213 in a minimum of three independent experiments (see Figure S5 for a full set of experimental results). In these antimicrobial susceptibility tests, AMP activity was assessed using two metrics: minimum inhibitory and bactericidal concentrations (MIC and MBC, respectively). Lower MIC and MBC values are desirable as they indicate that lower AMP concentrations are sufficient for inhibitory or bactericidal activity, respectively. AMP toxicity was measured by HC50 hemolytic concentration values—the concentration required to lyse ≥ 50% of porcine red blood cells. […]
Twenty-one putative AMP sequences identified using the rAMPage pipeline were validated through a minimum of three AST experiments performed independently on separate days. In these tests, the AMP activity was assessed using two metrics: minimum inhibitory concentration and minimum bactericidal concentration (MIC and MBC, respectively). MIC and MBC values were determined using procedures outlined by the Clinical and Laboratory Standards Institute (CLSI), with the recommended adaptations for the testing of cationic AMPs described previously. […]

Peptide text beside a SMILES is read from it.

For `CC(C)C[C@H](NC(=O)[C@H](CCCCN)NC(=O)[C@H](CCC(=O)O)NC(=O)[C@H](CC(C)C)NC(=O)[C@H](CCCNC(=N)N)NC(=O)[C@@H](NC(=O)[C@H](Cc1ccc(O)cc1)NC(=O)[C@H](CC(N)=O)NC(=O)[C@H](CCCCN)NC(=O)[C@H](CCCCN)NC(=O)[C@H](CC(N)=O)NC(=O)[C@@H](NC(=O)[C@H](CC(C)C)NC(=O)[C@H](CCCCN)NC(=O)[C@H](CCCCN)NC(=O)[C@@H](NC(=O)[C@H](CO)NC(=O)[C@H](CCCCN)NC(=O)[C@H](CO)NC(=O)[C@H](CC(C)C)NC(=O)[C@H](Cc1c[nH]c2ccccc12)NC(=O)[C@@H](N)CO)C(C)C)C(C)C)[C@@H](C)O)C(=O)N[C@@H](C)C(=O)N[C@@H](CCCCN)C(=O)N[C@@H](CCCCN)C(=O)N[C@@H](CCCCN)C(=O)N[C@@H](CC(C)C)C(=O)N[C@@H](Cc1ccccc1)C(=O)N[C@@H](CC(N)=O)C(=O)N[C@@H](CCC(=O)O)C(=O)O` [TeRu4] (H-SWLSKSVKKLVNKKNYTRLEKLAKKKLFNE-OH; N-terminus and C-terminus assumed), the “antimicrobial activity (in words)” value was “active only against E. coli”.

(Values after PMC9312091, “Mining Amphibian and Insect Transcriptomes for Antimicrobial Peptide Sequences with rAMPage” (Antibiotics, 2022).)
